Where two headings read alike, the source gives them in different places.
Assays:
[1] = 30 ppm cyclamate in acidic water; one panelist
Description: (§1) Ingredients were added to water while stirring until solids were visibly dissolved and the sample was poured into a glass bottle and stored at 4° C.
(§2) Taste tests were carried out with one panelist. Bottles were removed from the refrigerator and about 25 ml of beverage was poured into 4 oz-plastic cups. The panelist was given mineral water to rinse their mouth before tasting and between tasting different samples. Unsalted crackers were also given to eat followed by rinsing the mouth with mineral water before tasting the next sample.
(§3) Initially, the panelist was asked to determine the sweetness of the 30 ppm of cyclamate (Table 1).
The panelist was asked to compare the taste profile of (i) a sample of 150 ppm rebaudioside M in acidic water and (ii) a sample of 150 ppm rebaudioside M and 30 ppm cyclamate (below the sweetness recognition threshold concentration) in acidic water. The panelist was asked to compare the sweetness and taste profiles of the two samples.

[2] = 30 ppm cyclamate in acidic water; one panelist; remark: listed apart in the source
Description: as §1, §2, §3

[3] = Taste evaluation, sweetness compared to control sucrose acidic water solutions (Example 1); type: in vivo, human; conditions: samples with 320 ppm rebaudioside M in acidic water (citric acid); one panelist; controls 8%, 9%, 10% sucrose
Description: The panelist was instructed to sip, evaluate the sweetness, and then spit the sample in cups provided for that purpose.

Compound | sweetness of cyclamate alone [1] | sweetness of cyclamate alone [2] | sweetness compared to control sucrose acidic water solutions [3]
O=S(=O)([O-])NC1CCCCC1.[Na+] [cyclamate, sodium cyclamate] | not sweet | not sweet | –
C=C1C[C@@]23CC[C@H]4[C@@](C)(CCC[C@@]4(C)C(=O)O[C@@H]4O[C@H](CO)[C@@H](O)[C@H](O[C@@H]5O[C@H](CO)[C@@H](O)[C@H](O)[C@H]5O)[C@H]4O[C@@H]4O[C@H](CO)[C@@H](O)[C@H](O)[C@H]4O)[C@@H]2CC[C@]1(O[C@@H]1O[C@H](CO)[C@@H](O)[C@H](O[C@@H]2O[C@H](CO)[C@@H](O)[C@H](O)[C@H]2O)[C@H]1O[C@@H]1O[C@H](CO)[C@@H](O)[C@H](O)[C@H]1O)C3 [rebaudioside M] | – | – | < 8%

From patent US12465065B2, “Method of preparing beverages with enhanced sweetness with cyclamate” (The Coca-Cola Company, priority 2017, dated 2025)
